Data on one compound can be found in ChEMBL document CHEMBL5584338, “Design, Synthesis, and Biological Evaluation of 5-Amino-4-fluoro-1H-benzo[d]imidazole-6-carboxamide Derivatives as Novel and Potential MEK/RAF Complex Inhibitors Based on the "Clamp" Strategy” (J Med Chem, 2024).

The subject of data set [1] is MIA PaCa-2. As to the kind of experiment: Antiproliferative activity against human MIA PaCa-2 cells harboring KRAS G12C mutant incubated for 72 hrs by CCK8 assay. In kind it is functional, cell-based. As to conditions: MIA PaCa-2, 72 h.
The test system of a further data set is HeLa. Put plainly: Antiproliferative activity against human HeLa cells incubated for 72 hrs by CCK8 assay. In kind it is functional, cell-based. A general note: Tetrazolium dyes change colour on reduction, which living cells bring about.
Data set [2] in a line: Stability in human liver microsomes assessed as half life at 200 uM preincubated for 5 mins followed by NADPH addition measured upto 60 mins by LC-MS/MS analysis. As to conditions: time 65 min. In kind it is ADME, Microsome.
Data set [3] deals with T1, Dual specificity mitogen-activated protein kinase kinase; MEK1/2 (Homo sapiens) (UniProt P36507+Q02750). Put plainly: Inhibition of MEK phosphorylation in human MIA PaCa-2 cells upto 1 uM incubated for 4 hrs by Western blot analysis. Type of data set: cell-based. In general terms: A western blot detects proteins with antibodies after separation by electrophoresis.
T1 sequence (P36507 whole entry, looked up): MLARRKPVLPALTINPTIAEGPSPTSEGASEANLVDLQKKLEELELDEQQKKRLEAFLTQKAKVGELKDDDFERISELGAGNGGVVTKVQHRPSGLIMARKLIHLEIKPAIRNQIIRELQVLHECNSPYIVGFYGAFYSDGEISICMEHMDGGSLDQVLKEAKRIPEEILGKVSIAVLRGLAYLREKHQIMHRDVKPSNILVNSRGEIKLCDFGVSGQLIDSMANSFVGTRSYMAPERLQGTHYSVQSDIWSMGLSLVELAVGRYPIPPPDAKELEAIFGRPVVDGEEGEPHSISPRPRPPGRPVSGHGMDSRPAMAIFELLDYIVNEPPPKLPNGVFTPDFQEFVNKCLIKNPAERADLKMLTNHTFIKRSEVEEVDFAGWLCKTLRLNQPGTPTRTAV
T1 sequence (Q02750 whole entry, looked up): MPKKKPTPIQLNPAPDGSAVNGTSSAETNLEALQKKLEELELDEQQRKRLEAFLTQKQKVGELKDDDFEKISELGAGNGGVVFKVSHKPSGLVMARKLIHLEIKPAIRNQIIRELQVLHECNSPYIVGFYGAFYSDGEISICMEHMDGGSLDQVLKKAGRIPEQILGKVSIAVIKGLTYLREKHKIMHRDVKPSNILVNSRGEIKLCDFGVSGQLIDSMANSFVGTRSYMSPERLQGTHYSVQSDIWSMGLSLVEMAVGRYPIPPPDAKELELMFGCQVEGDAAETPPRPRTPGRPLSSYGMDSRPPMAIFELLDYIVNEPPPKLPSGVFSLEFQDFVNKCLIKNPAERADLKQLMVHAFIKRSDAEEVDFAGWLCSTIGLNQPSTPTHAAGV
Data set [4] has as its target T1, Dual specificity mitogen-activated protein kinase kinase; MEK1/2 (Homo sapiens). Put plainly: Inhibition of MEK phosphorylation in human MIA PaCa-2 cells at lower concentration incubated for at least 48 hrs by Western blot analysis. Type of data set: cell-based.
The subject of data set [5] is MIA PaCa-2. As to the kind of experiment: Stabilization of MEK1/2/BRAF complex in human MIA PaCa-2 cells at 100 nM incubated for 4 hrs by co-immunoprecipitation method. Type of data set: cell-based.
For data set [6], the target named is RAF proto-oncogene serine/threonine-protein kinase (Homo sapiens) (UniProt P04049). As to the kind of experiment: Binding affinity to CRAF (unknown origin) at 1 uM by kinase profiling analysis.
Chain of RAF proto-oncogene serine/threonine-protein kinase (Homo sapiens) (P04049 whole entry): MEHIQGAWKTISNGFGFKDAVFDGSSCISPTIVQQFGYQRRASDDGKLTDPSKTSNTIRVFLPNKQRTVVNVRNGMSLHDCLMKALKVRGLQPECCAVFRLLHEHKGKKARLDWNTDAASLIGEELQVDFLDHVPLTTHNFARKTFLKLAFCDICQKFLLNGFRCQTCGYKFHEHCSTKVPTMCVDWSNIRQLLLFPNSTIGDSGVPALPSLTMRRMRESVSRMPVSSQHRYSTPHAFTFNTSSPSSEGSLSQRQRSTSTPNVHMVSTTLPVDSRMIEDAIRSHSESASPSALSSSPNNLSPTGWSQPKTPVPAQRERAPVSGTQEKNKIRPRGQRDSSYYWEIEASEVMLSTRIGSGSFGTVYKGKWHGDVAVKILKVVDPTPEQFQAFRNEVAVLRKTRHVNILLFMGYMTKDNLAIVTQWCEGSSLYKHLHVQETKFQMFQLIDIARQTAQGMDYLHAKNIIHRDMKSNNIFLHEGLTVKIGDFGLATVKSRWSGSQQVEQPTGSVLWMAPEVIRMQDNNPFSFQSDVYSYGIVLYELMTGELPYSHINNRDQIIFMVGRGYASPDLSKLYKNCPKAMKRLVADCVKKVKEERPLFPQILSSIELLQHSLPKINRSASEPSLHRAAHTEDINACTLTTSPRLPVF
The next data set relates to HCT-116. Put plainly: Inhibition of colony formation in human HCT-116 cells incubated for 10 days by crystal violet staining based analysis. In kind it is functional, cell-based. As to conditions: dose 0.1-10 µM, time 10.0 day.
The subject of a further data set is HUVEC. As to the kind of experiment: Inhibition of cell migration in human HUVEC cells at 0.01 to 1 uM incubated for 24 hrs by wound healing assay. Type of data set: functional, cell-based. As to conditions: dose 0.01-1 µM.
Data set [7] has as its system MIA PaCa-2. Put plainly: Induction of apoptosis in human MIA PaCa-2 cells assessed as early apoptotic cells at 0.05 uM incubated for 24 hrs by Annexin V-FITC/PI staining based flow cytometry (reference value: 5.02 %). In kind it is functional.
Data set [8] deals with MIA PaCa-2. Put plainly: Induction of apoptosis in human MIA PaCa-2 cells assessed as early apoptotic cells at 5 uM incubated for 24 hrs by Annexin V-FITC/PI staining based flow cytometry (reference value: 5.02 %). Type of data set: functional. (In flow cytometry, cells or beads pass a laser one at a time.)
For data set [9], the system named is MIA PaCa-2. Put plainly: Induction of apoptosis in human MIA PaCa-2 cells assessed as late apoptotic cells at 0.05 uM incubated for 24 hrs by Annexin V-FITC/PI staining based flow cytometry (reference value: 6.90 %). Type of data set: functional.
Data set [10] relates to MIA PaCa-2. As to the kind of experiment: Induction of apoptosis in human MIA PaCa-2 cells assessed as late apoptotic cells at 0.25 uM incubated for 24 hrs by Annexin V-FITC/PI staining based flow cytometry (reference value: 6.90 %). Type of data set: functional.
The subject of data set [11] is MIA PaCa-2. As to the kind of experiment: Induction of apoptosis in human MIA PaCa-2 cells assessed as late apoptotic cells at 5 uM incubated for 24 hrs by Annexin V-FITC/PI staining based flow cytometry (reference value: 6.90 %). In kind it is functional.
A short description of data set [12]: Half life in Sprague-Dawley rat at 5 mg/kg, iv. Type of data set: ADME, organism-based. As to conditions: in vivo.
Data set [13] can be described thus: Toxicity in BALB/c mouse xenografted with […] harboring KRAS G12D mutant assessed as animal death at 5 to 30 mg/kg, iv administered 5 times a week for 12 days. Type of data set: organism-based, C-26. As to conditions: in vivo, 288 h, dose 5-30 mg/kg, time 12 day.
A short description of data set [14]: Toxicity in BALB/c mouse xenografted with […] harboring KRAS G12D mutant assessed as body weight change at 5 to 30 mg/kg, iv administered 5 times a week for 12 days. Type of data set: organism-based, C-26. As to conditions: in vivo, 288 h, dose 5-30 mg/kg, time 12 day.
The nature of data set [15]: Toxicity in NU/NU mouse xenografted with human HCT-116 cells harboring KRAS G13D mutant assessed as animal death at 15 to 30 mg/kg, iv administered 5 times a week for 16 days. Type of data set: organism-based. As to conditions: in vivo, 384 h, dose 15-30 mg/kg, time 16 day.
Data set [16] deals with Mitogen-activated protein kinase 1/3 (ERK1/2) (Homo sapiens). Put plainly: Inhibition of ERK phosphorylation in human MIA PaCa-2 cells upto 1 uM incubated for 4 hrs by Western blot analysis.

In general, IC50 refers to the point on the concentration scale where inhibition reaches its midpoint. One may read the half-life as the time in which the quantity being followed falls by half.

Active and inactive are the calls of the source. The calls are words filed in the database; no cut-off is given here. Some results are limits rather than exact numbers.

With `CCNS(=O)(=O)Nc1cccc(Cn2cnc3c(F)c(Nc4ccc(C5CC5)cc4F)c(C(=O)NOCCO)cc32)c1F`, the IC50 in the data set with MIA PaCa-2 [1] is 11 nM; in the data set on HeLa, > 10000 nM. The half-life at 200 µM in [2] was determined as 58.7 min. The inhibition entry (in [3]; in data set [4]; with HUVEC; in data set [16]) was “Active” in each case. The outcome (in the data set on MIA PaCa-2 [5]; in data set [6]) was Active. Moreover, the inhibition entry with HCT-116 was “Dose-Dependent Effect”. In addition, the Activity was 10.7% in the data set on MIA PaCa-2 [7]; 42.1% in the data set on MIA PaCa-2 [8]; 6.59% in the data set with MIA PaCa-2 [9]; 7.36% with MIA PaCa-2 [10]; 9.09% with MIA PaCa-2 [11]; “Non-Toxic” in data set [13]. For the same compound, the Activity result in data set [14] and in data set [15] was “Non-Toxic” each time. The half-life in data set [12] is 55.2 min.
